Measured values from US10610522B2, “Methods for retreating irritable bowel syndrome (IBS)” (Salix Pharmaceuticals, Inc., priority 2014, dated 2020).

What was measured:
IBS-D = assay: TARGET 3: repeat treatment with rifaximin 550 mg TID in IBS-D (open-label, double-blind first and second repeat treatment); assay type: in vivo, human
Description: This study consists of several treatment phases, and is initiated with a placebo run-in treatment during the Screening/Treatment 1 Phase. The placebo run-in is included in the design to disqualify subjects from enrollment if they no longer meet IBS symptom related entry criteria at the end of the Screening/Treatment 1 Phase (e.g., spontaneous improvement). […] Subjects who achieve treatment success in both IBS-related abdominal pain and stool consistency during at least two of the four week follow-up period are classified as responders and enter a treatment free Maintenance Phase 1. Non-responders are withdrawn from the study to provide an enriched population of subjects who respond to treatment with rifaximin. The treatment free Maintenance Phase 1 is variable in time (up to 18 weeks in total) and depends upon recurrence (e.g., absence of treatment success in both IBS related abdominal pain or stool consistency).
The subjects remain blinded to placebo received during Treatment 1. Subjects with recurrence enter the DBR Treatment 3 Phase.
Subjects are considered to have met recurrence criteria or have “relapsed” when they experience the recurrence of abdominal pain OR stool consistency for at least 3 weeks during a 4-week follow-up period. […] Therefore a recurrence of both symptoms is not required to define a “relapse”.
The study was a multi-center, randomized, double-blind, placebo-controlled trial in adult subjects with non-C IBS. The study duration was up to 51 weeks, with approximately 600 patients.
The Treatment 1 or Screening phase is the 7-13 days prior to study Day 1.
The proportion of subjects who were responders to repeat treatment in both IBS-related abdominal pain and stool consistency were evaluated during the 4 week treatment-free follow-up (Primary Evaluation Period, PEP) in the DBR (Double Blind Repeat) of the Treatment 3 Phase.
In this analysis, when a weekly response was absent for either the abdominal pain or stool consistency component for at least 3 weeks during a rolling consecutive 4-week assessment period; the subject is considered to have recurrence.
Further, the proportion of subjects who were responders to repeat treatment in both IBS-related abdominal pain and stool consistency during the PEP in the DBR Treatment 3 Phase and that had no recurrence through the end of Maintenance Phase 2 were assessed.
Further, the proportion of subjects were assessed who were responders to repeat treatment for IBS-related bloating during the PEP in the DBR Treatment 3 Phase.
The intent-to-treat (ITT) population included subjects who were randomized and received at least one dose of the study drug in the Treatment 3/DBR Treatment Phase. These subjects served as the primary analysis population. An efficacy analysis was conducted on the ITT population.
Double-Blind Phase of the Study (Response type—durable and maintained): Proportion that responded to the composite FDA Endpoint of relief in both IBS-related Abdominal Pain AND Stool Consistency during the PEP in the first repeat double-blind, placebo controlled treatment phase AND continued to respond without recurrence through the end of Week 6 following the second repeat double-blind, placebo controlled treatment.
Double-Blind Repeat Treatment and follow-up (Response type—durable): Proportion that responded to the composite FDA Endpoint of relief in both IBS-related Abdominal Pain AND Stool Consistency during the PEP in the first repeat double-blind, placebo controlled treatment phase AND continued to respond without recurrence through the end of Week 12, independent of any additional treatment.
At the end of Week 6, patients were assessed for response to treatment. […]

cytochrome P450 2C19 = cytochrome P450 2C19 (Homo sapiens, UniProt P33261); assay: In vitro cytochrome P450 inhibition; assay type: biochemical; details: 2 to 200 ng/mL
cytochrome P450 2C19, sequence (P33261 whole entry): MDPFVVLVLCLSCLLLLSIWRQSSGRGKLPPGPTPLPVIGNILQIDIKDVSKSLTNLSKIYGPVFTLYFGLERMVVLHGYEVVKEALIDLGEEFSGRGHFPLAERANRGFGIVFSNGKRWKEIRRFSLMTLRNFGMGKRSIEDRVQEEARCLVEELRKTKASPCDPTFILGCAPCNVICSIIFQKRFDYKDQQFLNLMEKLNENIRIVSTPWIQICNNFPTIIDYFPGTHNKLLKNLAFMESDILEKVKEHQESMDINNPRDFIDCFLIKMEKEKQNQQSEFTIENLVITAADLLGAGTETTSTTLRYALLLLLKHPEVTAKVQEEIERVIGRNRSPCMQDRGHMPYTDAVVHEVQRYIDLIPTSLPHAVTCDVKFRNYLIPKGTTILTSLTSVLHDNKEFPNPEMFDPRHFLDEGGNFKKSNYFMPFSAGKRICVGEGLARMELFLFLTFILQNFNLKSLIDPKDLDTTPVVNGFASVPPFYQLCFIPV

CYP3A4 = CYP3A4 (Homo sapiens, UniProt P08684); assay: In vitro cytochrome P450 inhibition; assay type: biochemical; details: 2 to 200 ng/mL
CYP3A4, sequence (P08684 whole entry): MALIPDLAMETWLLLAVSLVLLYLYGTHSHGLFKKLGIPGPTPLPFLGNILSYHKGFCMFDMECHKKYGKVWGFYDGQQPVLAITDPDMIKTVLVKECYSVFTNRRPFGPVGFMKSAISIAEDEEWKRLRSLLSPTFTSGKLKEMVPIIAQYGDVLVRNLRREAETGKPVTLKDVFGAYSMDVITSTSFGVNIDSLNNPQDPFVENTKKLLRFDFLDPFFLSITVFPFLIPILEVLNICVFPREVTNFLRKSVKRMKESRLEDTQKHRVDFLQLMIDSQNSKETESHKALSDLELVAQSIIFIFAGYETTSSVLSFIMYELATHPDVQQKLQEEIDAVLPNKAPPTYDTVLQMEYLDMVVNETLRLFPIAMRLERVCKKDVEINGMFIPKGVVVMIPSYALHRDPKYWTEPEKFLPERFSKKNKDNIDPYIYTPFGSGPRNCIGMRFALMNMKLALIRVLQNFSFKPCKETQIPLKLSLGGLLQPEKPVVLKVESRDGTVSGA

[1] = TARGET 3, month following repeat treatment, Worst-Case Analysis, 550 mg TID, N = 328

## CO[C@H]1/C=C/O[C@@]2(C)Oc3c(C)c(O)c4c(O)c(c5c(nc6cc(C)ccn65)c4c3C2=O)NC(=O)/C(C)=C\C=C\[C@H](C)[C@H](O)[C@@H](C)[C@@H](O)[C@@H](C)[C@H](OC(C)=O)[C@@H]1C [Rifaximin, (2S,16Z,18E,20S,21S,22R,23R,24R,25S,26S,27S,28E)-5,6,21,23,25 Pentahydroxy-27-methoxy-2,4,11,16,20,22,24,26-octamethyl-2,7-(epoxypentadeca-(1,11,13)trienimino) benzofuro (4,5-e) pyrido(1,2-a) benzimidazole-1,15(2H)-dione,25-acetate]
IBS-D; TARGET 3
  Median time to recurrence of IBS-related symptoms after initial 14-day treatment: 8 weeks
IBS-D; TARGET 3, 550 mg TID 14 d, 1074 of 2579 patients
  Patients who responded to initial open-label treatment (abdominal pain and/or stool consistency): 41.6%
IBS-D; TARGET 3, 4 weeks following first repeat treatment, 550 mg TID
  Monthly responders for abdominal pain and stool consistency after first repeat treatment: 33%
IBS-D; [1]
  Abdominal Pain Responders: %: (51) %
  Abdominal Pain Responders: n: 166
  Abdominal Pain and Stool Consistency Responders: %: (33) %
  Abdominal Pain and Stool Consistency Responders: n: 107
  Stool Consistency Responders: %: (42) %
  Stool Consistency Responders: n: 138
IBS-D; TARGET 3, no recurrence 10 weeks after repeat treatment
  Sustained response for abdominal pain and stool consistency: 17%
IBS-D; TARGET 3, no recurrence through second repeat treatment phase (20 weeks)
  Prevention of recurrence of abdominal pain and stool consistency responders: 13%
IBS-D; TARGET 3, number of patients
  Responders without recurrence of abdominal pain or stool consistency symptoms for 22 weeks following initial treatment: 382
IBS-D; Weeks 3 through 6, Second Repeat Treatment Phase, LOCF Analysis
  IBS-Related Abdominal Pain Responders: (52.5%)
IBS-D; Weeks 3 to 6, Double Blind First Repeat Treatment Phase, LOCF Analysis, ITT
  IBS-Related Abdominal Pain and Stool Consistency Responders: 116/328
IBS-D; during repeat treatment
  Adverse reaction: ALT increased: 2%
  Adverse reaction: nausea: 2%
IBS-D; repeat treatments 550 mg TID
  Adverse event rate of repeat treatments: generally below that of placebo
IBS-D; up to 3 treatment cycles
  Effects on pathogen emergence, pathogen susceptibility, microbial population in stool or skin swab samples: no evidence of significant effects
Cytochrome P450 2C19
  Inhibition of cytochrome P450 2C19: does not inhibit
CYP3A4
  Inhibition of CYP3A4: does not inhibit
